One experiment has as its target RAGE (Homo sapiens, UniProt Q15109). Description: Binding affinity for RAGE from binding equilibrium attained in solution (competition ELISA). Particulars: 20 nM RAGE, JPT1a 0 to 1000 nM, overnight. Here is the method: Definitive binding affinity of JPT1a for RAGE was determined from binding equilibrium attained in solution. As shown in FIGS. 8A-8B, 96-well plates coated with 500 nM JPT1a were treated with overnight incubations containing 20 nM RAGE and JPT1a in concentrations ranging from 0 nM to 1000 nM. Absorbance values were used to calculate relative [RAGE]bound and [RAGE]free via the […] (Friguet B, Chaffotte A F, Djavadi-Ohaniance L, Goldberg M E. Measurements of the true affinity constant in solution of antigen-antibody complexes by enzyme-linked immunosorbent assay. J Immunol Methods. 1985; 77(2):305-319; Rath S, Stanley C M. An inhibition enzyme immunoassay for estimating relative antibody affinity and affinity heterogeneity. 1988; 106:245-249; Newton P, Harrison P, Clulow S. A Novel Method for Determination of the Affinity of Protein: Protein Interactions in Homogeneous Assays. 2008:674-682). FIG. 8A. […] Black dashed lines indicate 95% confidence interval, and gray dashed lines indicate 95% prediction interval, n=4. FIG. 8B. […] Dashed lines indicate 95% confidence interval, n=3.

In a further experiment the target is T1, Aβ1-40 (Homo sapiens, UniProt P05067).
T1 construct: modulate Aβ1-40 aggregation
Particulars: cited from earlier work.

The subject of experiment [1] is IL-8. Description: IL-8 expression in previously LPS-stimulated THP1 macrophages (ELISA). Type of experiment: cell-based, human. As to conditions: 25, 5, 1 μM added after 48 h of 2 ng/mL LPS, additional 24 h. Here is the method: (§1) THP-1 monocytes were differentiated as described above 20. Upon differentiation, these cells were then incubated (48 h) with media containing low-dose (2 ng/mL) LPS as a chronic pro-inflammatory stimulus 21. Following incubation, JPT1a or JPT1 was added for final concentrations of 25, 5, and 1 μM 22, and cells were incubated an additional 24 h. Treatment with 2 ng/mL LPS alone served as a positive control, while treatment with an equivalent volume of buffer diluted into media served as the vehicle. Media was collected for later assessment of cytokines via ELISA as described above 23. Cells were fixed and stained for RAGE, phalloidin (cytoplasmic marker), and DAPI (nuclear marker) 24. Each channel was imaged with a Zeiss LSM 510 META Confocal Scanning Laser Microscope using a plan-neofluar 40×/1.3 oil DIC immersion objective; three of these multi-channel images were obtained from each slide in each experiment. 25 All multi-channel images were converted to TIFF file format via ImageJ64 software for quantitative image analysis using a custom subroutine written in Matlab™ software to obtain the average RAGE expression per volume of cells, and the data generated was assessed for statistical significance using GraphPad Prism 7.0 software 26.
(§2) As shown in FIGS. 4B-4D, THP1 macrophages were treated with low-dose LPS at 2 ng/mL. […]
A general note: In an ELISA, binding on a coated surface is turned into a signal by an enzyme label.

The test system of experiment [2] is IL-8. Description: IL-8 in supernatant of THP-1 macrophages co-incubated with peptoid and LPS (ELISA). In kind it is cell-based, human. Particulars: 3 days, vs LPS alone. As for the experimental part: THP-1 monocytes were differentiated into macrophages through exposure to phorbol 12-myristate 13-acetate (PMA) for three days prior to experimentation 10. […] Upon differentiation, these cells were then incubated (3 days) with media containing JPT1a (50, 10, or 2 μM) alone or JPT1a (50, 10, or 2 μM) in the presence of low-dose (2 ng/mL) lipopolysaccharide (LPS) as a chronic pro-inflammatory stimulus 11. Treatment with 2 ng/mL LPS alone served as a positive control, while treatment with an equivalent volume of buffer diluted into media served as the vehicle. Cellular supernatant was harvested on day 3 12; these samples were immediately centrifuged at 1200 rpm for 10 min at 25° C. to remove any cells or debris. […] All multi-channel images were converted to TIFF file format via ImageJ64 software for quantitative image analysis using a custom subroutine written in Matlab™ software to obtain the average RAGE expression per volume of cells, and the data generated was assessed for statistical significance using GraphPad Prism 7.0 software 15.
As shown in FIGS. 2B-2D, THP-1 macrophages were treated with JPT1a alone (white) or in the presence of a chronic low-dose (2 ng/mL) of LPS (grey), for 3 days prior to supernatant harvest and storage. Examination of the supernatant via ELISA determined the concentrations of (FIG. 2B) IL-1β, (FIG. 2C) IL-6, and (FIG. 2D) IL-8. […]

For the next experiment, the system named is IL-6. The experiment in a line: IL-6 expression in previously LPS-stimulated THP1 macrophages (ELISA). Type of experiment: cell-based, human. Particulars: 25, 5, 1 μM added after 48 h of 2 ng/mL LPS, additional 24 h. Here is the method: as §1, §2

Structures are written as SMILES. Where two headings read alike, the source gives them in different places. Where a SMILES comes first, the peptide text is derived from it. [ ]: non-standard residue; d: D form. N(1S-Me-propyl)Gly = CC[C@H](C)NCC(=O)O; Nspe = C[C@H](NCC(=O)O)c1ccccc1; Nlys = NCCCCNCC(=O)O

Chain of RAGE (Q15109 23-404): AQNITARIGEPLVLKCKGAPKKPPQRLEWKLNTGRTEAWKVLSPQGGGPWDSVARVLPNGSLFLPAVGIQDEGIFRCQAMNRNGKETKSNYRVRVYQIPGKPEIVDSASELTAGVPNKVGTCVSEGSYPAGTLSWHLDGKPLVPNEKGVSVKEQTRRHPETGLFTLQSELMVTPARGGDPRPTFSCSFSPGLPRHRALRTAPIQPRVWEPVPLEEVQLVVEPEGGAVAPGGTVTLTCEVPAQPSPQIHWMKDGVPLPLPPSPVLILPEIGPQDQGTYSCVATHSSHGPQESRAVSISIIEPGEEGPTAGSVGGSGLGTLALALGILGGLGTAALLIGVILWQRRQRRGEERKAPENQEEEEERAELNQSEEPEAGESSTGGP
T1 sequence (P05067 672-711 limits assumed): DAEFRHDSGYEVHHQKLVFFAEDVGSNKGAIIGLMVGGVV

As for `CC[C@H](C)N(CC(=O)N(CC(=O)N(CC(=O)N(CC(=O)N(CC(=O)N(CC(=O)N(CC(N)=O)[C@@H](C)c1ccccc1)[C@@H](C)c1ccccc1)[C@@H](C)CC)[C@@H](C)c1ccccc1)[C@@H](C)c1ccccc1)[C@@H](C)CC)C(=O)CNCCCCN` [JPT1a] (H-[Nlys][N(1S-Me-propyl)Gly][N(1S-Me-propyl)Gly][Nspe][Nspe][N(1S-Me-propyl)Gly][Nspe][Nspe]-NH2), the Kd on RAGE (n=3, read-out: Kd, plot of specific binding (one epitope)) worked out at 79 ± 28.4 nM; at RAGE (n=4, read-out: binding affinity for RAGE (Scatchard plot)) it was 139 nM. Moreover, the Aβ1-40 aggregation result on Aβ1-40 is “capacity to modulate Aβ1-40 aggregation”. For the same compound, the “IL-8 production of previously stimulated macrophages” value in the experiment on IL-8 [1] was “does not affect cytokine production”. Besides, the “levels of LPS-induced IL-8” value in the experiment with IL-8 [2] (peptoid 10 μM with 2 ng/mL LPS) is “significantly reduces”. The “LPS-induced production of IL-8” value in the experiment with IL-8 [2] (peptoid 50 μM with 2 ng/mL LPS) is on record as “significantly attenuates”. For the same compound, the “IL-6 production of previously stimulated macrophages” value in the experiment on IL-6 is “does not affect cytokine production”.

Source of the values: patent US11197908B2, “Peptoids and methods for attenuating inflammatory response” (THE BOARD OF TRUSTEES OF THE UNIVERSITY OF ARKANSAS, priority 2018, dated 2021).
